For series [1] the following is noted: log([solute]octanol/[solute]water), un-ionized compound; cited from earlier work.
The test system of a further series is cholinesterase (ChE). As to conditions: human whole blood diluted 10 times, acetylthiocholine 1.8 mg/mL, 5 min incubation in capillary, vs control.

Several values for one entry are separate records, joined by “and”; a condition that tells them apart may be missing. Equal entries are not always repeated.

Description for cholinesterase (ChE): For testing of a particular solvent, 5 μL blood sample (diluted) was injected into the capillary with the extraction solvent plug immediately after the mixing the acetylthiocholine into the blood. After the 5 min incubation in capillary, the TCh/ATch ratio was measured using SFME nanoESI MS. For the control, 5 min after the mixing acetylthiocholine into the diluted blood, the sample was taken and analyzed immediately using SFME nanoESI MS with ethyl acetate as the extraction phase. Spray voltage of 1.5 kV was used for nanoESI.
SFME-nanoESI was applied for monitoring the enzymatic activity of cholinesterase (ChE) in whole blood samples. […] The blood sample was diluted 10 times to slow down the reaction rate as well as to facilitate the slug flows for SFME. The substrate acetylthiocholine iodine was added into the diluted blood sample at a concentration of 1.8 mg/mL, and then 5 μL sample was taken immediately and injected into the capillary with 5 μL extraction phase. The capillary with the sample and the extraction solvent was left in room temperature 25° C. for incubation. The SFME-nanoESI could be performed repeatedly on the same sample and the ratio of the substrate ATCh and the reaction product TCh could be monitored as a function of time to characterize the enzymatic activity of the ChE. […]

Consider `CN1C(=O)CC[C@H]1c1cccnc1` [cotinine], for which the “Log P (partition coefficient)” value in series [1] is on record as 0.07.
Take `N[C@@H](Cc1ccccc1)C(=O)O` [phenylalanine]: the “Log P (partition coefficient)” value in series [1] is −1.38.
As to `CCOC(C)=O` [ethyl acetate], the “reduction of ChE activity due to contact with extraction solvent” value in the series on cholinesterase (ChE) is given as “minimal”.
The same measure, in the same setting: the value for `ClC(Cl)Cl` [chloroform] was “more than 60%”.
With `CN1[C@H]2CC[C@@H]1[C@@H](C(=O)O)[C@@H](OC(=O)c1ccccc1)C2` [benzoylecgonine], the “Log P (partition coefficient)” value in series [1] was −0.59 and −0.6.
With `Cc1ccc(/N=C/N(C)/C=N/c2ccc(C)cc2C)c(C)c1` [amitraz], the “Log P (partition coefficient)” value in series [1] is 5.

Source of the values: patent US12374538B2, “Systems and methods for quantifying an analyte extracted from a sample” (Purdue Research Foundation, priority 2014, dated 2025).
